Converted amounts (≈) assume the structure as drawn.
Legend:
[1] = biological target: T1, Tyrosine-protein kinase Tec (Homo sapiens, UniProt P42680); assay: Inhibition of TEC (unknown origin) using peptide substrate in presence of ATP by caliper electrophoresis method
T1 sequence (P42680 whole entry): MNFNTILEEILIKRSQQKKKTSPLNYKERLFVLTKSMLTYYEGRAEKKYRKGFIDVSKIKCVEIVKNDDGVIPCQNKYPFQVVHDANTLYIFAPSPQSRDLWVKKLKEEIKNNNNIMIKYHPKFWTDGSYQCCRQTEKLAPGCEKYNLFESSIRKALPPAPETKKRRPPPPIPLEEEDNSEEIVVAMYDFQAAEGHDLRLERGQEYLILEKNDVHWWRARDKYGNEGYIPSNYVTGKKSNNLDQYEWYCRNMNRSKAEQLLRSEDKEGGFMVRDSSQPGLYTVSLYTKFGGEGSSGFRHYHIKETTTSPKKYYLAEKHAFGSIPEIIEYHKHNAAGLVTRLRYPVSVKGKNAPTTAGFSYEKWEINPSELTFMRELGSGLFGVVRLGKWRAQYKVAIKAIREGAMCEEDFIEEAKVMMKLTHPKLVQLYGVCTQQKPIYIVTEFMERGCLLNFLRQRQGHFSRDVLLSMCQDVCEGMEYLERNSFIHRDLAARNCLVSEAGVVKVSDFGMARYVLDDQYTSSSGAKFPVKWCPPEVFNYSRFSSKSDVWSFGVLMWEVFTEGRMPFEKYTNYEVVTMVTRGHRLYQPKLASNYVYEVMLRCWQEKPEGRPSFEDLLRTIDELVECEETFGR

[2] = Clearance in human liver S9 fraction assessed as measuring per mg protein by LCMS/MS analysis; type: ADME, subcellular; details: read-out: CLH
[3] = AUC in rat at 20 mg/kg, po or 2 mg/kg, iv; type: ADME, organism-based; design: dose 20 mg/kg, route po; details: in vivo
[4] = biological target: T2, Tyrosine-protein kinase JAK3 (Homo sapiens, UniProt P52333); assay: Inhibition of JAK3 (unknown origin) using peptide substrate in presence of ATP by caliper electrophoresis method
T2 sequence (P52333 whole entry): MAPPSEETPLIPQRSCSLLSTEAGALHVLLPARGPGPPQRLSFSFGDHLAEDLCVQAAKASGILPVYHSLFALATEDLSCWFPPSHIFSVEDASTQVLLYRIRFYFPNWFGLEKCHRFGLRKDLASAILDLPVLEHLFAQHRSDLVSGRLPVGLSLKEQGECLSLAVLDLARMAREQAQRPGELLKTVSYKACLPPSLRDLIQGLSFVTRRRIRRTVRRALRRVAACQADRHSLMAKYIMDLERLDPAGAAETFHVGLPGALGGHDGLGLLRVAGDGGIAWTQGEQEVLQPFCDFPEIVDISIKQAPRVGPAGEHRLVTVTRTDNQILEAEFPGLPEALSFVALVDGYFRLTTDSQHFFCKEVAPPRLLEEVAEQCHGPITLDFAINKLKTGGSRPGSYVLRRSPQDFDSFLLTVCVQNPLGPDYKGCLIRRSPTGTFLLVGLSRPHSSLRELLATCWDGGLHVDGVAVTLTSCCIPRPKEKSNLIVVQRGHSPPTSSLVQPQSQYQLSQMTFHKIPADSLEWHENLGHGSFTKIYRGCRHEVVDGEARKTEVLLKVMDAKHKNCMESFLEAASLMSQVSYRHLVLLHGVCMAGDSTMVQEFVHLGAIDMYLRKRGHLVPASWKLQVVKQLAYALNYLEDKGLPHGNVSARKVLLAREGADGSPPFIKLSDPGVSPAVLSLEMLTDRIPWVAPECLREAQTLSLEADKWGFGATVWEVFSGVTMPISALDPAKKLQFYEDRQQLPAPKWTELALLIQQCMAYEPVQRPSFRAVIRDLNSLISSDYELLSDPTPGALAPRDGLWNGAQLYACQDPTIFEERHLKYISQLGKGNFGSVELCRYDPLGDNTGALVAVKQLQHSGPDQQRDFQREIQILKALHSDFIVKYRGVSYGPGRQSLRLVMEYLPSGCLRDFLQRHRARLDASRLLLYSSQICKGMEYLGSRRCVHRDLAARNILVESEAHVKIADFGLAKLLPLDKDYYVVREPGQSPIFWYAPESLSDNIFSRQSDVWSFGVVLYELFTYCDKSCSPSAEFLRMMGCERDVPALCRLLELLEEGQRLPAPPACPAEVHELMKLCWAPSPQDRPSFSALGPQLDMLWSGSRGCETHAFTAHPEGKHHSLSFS

[5] = biological target: Epidermal growth factor receptor (Homo sapiens, UniProt P00533); assay: Inhibition of EGFR (unknown origin) using peptide substrate in presence of ATP by caliper electrophoresis method
Epidermal growth factor receptor, sequence (P00533 whole entry): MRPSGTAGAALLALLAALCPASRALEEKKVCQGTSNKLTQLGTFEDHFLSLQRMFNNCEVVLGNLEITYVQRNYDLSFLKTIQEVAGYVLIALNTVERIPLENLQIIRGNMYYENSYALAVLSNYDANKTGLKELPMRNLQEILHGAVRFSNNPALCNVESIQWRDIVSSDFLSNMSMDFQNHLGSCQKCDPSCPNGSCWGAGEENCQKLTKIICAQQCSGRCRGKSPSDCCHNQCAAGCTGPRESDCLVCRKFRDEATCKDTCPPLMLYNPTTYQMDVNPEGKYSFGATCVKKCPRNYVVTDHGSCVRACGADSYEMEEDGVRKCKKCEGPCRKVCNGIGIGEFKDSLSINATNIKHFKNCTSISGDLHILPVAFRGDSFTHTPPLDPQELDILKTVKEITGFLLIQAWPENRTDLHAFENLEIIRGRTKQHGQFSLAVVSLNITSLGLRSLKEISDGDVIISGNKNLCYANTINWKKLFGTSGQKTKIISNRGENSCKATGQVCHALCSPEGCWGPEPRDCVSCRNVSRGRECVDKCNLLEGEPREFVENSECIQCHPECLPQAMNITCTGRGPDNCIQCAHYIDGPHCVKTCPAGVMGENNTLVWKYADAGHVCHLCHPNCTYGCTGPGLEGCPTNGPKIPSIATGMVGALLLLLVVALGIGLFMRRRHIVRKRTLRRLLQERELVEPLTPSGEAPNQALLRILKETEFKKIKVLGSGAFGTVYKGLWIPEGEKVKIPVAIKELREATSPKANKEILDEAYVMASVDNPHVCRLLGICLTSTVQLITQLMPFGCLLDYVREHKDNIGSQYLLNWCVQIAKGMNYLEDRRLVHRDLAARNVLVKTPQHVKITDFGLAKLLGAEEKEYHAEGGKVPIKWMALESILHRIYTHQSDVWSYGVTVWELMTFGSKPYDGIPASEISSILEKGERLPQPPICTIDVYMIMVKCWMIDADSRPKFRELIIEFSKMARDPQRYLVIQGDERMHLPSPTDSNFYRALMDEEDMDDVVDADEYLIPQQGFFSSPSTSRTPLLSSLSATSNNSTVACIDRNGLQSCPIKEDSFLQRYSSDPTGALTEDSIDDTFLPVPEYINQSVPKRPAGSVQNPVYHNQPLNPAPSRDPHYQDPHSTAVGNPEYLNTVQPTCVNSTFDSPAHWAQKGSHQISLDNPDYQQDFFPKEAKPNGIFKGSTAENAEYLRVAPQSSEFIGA

[6] = Solubility of compound in PBS at pH 7 by LCMS/MS analysis; type: physicochemical
[7] = Oral bioavailability in rat at 20 mg/kg; type: ADME, organism-based; details: in vivo
[8] = biological target: Receptor tyrosine-protein kinase erbB-2 (Homo sapiens, UniProt P04626); assay: Inhibition of ERBB2 (unknown origin) using peptide substrate in presence of ATP by caliper electrophoresis method
Receptor tyrosine-protein kinase erbB-2, sequence (P04626 whole entry): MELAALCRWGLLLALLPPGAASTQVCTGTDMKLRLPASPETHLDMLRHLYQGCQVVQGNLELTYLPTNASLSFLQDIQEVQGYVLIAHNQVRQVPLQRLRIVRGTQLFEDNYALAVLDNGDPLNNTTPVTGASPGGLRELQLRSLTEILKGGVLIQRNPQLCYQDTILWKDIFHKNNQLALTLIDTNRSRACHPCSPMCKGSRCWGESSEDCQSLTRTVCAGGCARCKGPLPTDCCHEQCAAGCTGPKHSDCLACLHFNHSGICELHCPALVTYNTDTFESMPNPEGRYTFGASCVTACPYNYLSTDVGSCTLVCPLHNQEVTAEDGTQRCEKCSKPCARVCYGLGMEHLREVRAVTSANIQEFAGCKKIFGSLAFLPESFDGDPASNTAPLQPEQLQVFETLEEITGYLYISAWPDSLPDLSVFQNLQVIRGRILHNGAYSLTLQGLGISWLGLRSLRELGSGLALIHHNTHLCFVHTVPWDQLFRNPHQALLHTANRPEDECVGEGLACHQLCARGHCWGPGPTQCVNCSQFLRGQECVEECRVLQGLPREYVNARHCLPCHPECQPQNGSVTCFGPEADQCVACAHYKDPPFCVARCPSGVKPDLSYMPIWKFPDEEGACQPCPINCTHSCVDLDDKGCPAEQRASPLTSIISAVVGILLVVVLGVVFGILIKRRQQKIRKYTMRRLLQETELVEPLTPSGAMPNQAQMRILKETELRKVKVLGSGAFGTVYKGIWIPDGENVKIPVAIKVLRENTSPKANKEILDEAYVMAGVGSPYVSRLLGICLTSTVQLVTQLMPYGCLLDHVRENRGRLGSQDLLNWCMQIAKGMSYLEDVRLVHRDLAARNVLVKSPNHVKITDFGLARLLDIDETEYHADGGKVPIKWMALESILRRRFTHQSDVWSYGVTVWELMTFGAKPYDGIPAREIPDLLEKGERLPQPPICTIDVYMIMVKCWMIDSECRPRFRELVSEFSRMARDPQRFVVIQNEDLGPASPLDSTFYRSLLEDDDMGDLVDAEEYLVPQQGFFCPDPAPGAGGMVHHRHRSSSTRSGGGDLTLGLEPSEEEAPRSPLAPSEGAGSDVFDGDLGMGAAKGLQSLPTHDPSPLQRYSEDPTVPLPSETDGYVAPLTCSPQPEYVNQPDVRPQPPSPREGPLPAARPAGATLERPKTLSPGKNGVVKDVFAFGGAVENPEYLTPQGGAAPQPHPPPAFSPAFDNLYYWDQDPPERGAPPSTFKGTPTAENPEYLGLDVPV

[9] = biological target: T3, Tyrosine-protein kinase TXK (Homo sapiens, UniProt P42681); assay: Inhibition of RLK (unknown origin) using peptide substrate in presence of ATP by caliper electrophoresis method
T3 sequence (P42681 whole entry): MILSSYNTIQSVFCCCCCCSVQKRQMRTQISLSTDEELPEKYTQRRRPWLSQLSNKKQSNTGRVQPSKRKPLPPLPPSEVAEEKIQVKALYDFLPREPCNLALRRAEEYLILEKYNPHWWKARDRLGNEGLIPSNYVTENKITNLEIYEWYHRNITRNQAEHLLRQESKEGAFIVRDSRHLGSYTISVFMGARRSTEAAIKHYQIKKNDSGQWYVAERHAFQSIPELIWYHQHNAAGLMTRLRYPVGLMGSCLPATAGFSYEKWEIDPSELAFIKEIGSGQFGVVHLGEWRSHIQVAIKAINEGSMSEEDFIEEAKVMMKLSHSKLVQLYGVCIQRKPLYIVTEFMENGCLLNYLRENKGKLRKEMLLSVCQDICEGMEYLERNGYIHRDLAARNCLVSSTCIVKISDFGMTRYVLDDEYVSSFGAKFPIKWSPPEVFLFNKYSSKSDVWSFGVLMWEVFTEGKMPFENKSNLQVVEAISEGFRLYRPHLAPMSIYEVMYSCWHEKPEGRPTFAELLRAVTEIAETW

[10] = Cmax in rat at 20 mg/kg, po or 2 mg/kg, iv; type: ADME, organism-based; design: dose 20 mg/kg, route po; details: in vivo
[11] = biological target: Tyrosine-protein kinase Blk (Homo sapiens, UniProt P51451); assay: Inhibition of BLK (unknown origin) using peptide substrate in presence of ATP by caliper electrophoresis method
Tyrosine-protein kinase Blk, sequence (P51451 whole entry): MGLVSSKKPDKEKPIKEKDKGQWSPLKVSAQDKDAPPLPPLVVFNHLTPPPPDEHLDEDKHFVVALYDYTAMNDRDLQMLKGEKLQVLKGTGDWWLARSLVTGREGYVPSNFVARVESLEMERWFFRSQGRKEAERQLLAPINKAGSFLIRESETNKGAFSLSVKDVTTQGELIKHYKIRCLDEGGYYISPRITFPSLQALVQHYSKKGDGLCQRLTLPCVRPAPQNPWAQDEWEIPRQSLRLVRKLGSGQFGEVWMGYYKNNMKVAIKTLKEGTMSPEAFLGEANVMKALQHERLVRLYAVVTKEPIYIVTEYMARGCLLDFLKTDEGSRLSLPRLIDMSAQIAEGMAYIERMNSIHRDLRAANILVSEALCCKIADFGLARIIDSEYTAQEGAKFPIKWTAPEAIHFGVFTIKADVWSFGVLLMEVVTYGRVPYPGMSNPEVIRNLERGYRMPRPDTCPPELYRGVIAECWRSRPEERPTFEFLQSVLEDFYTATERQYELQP

IC50 [1] | microsomal CLint [2] | AUC [3] | IC50 [4] | IC50 [5] | solubility [6] | F ([7]; po, 20 mg/kg) | IC50 [8] | IC50 [9] | Cmax [10] | IC50 [11] | AUC ([3]; read-out: AUC) | bioavailability [7] | SMILES
1.9 nM | 77 µL/min/mg | 1071 ng·h/mL | > 5000 nM | 368 nM | 2.1 µM (≈ 1.13 µg/mL) | 21.1% | 1080 nM | 3.4 nM | 326 ng/mL | 2.2 nM |  |  | CC(C)(C)/C=C(\C#N)C(=O)N1CCC[C@@H](n2nc(-c3ccc(Oc4ccccc4)cc3F)c3c(N)ncnc32)C1 [ATUZABRUTINIB]
0.5 nM | 30 µL/min/mg |  | > 5000 nM | 980 nM | 315 µM (≈ 196 µg/mL) |  | 4350 nM | 1.2 nM | 96.5 ng/mL | 0.5 nM | 568 ng·h/mL | 20.2% | CN1CCN(C(C)(C)/C=C(\C#N)C(=O)N2CCC[C@@H](n3nc(-c4ccc(Oc5ccccc5)cc4F)c4c(N)ncnc43)C2)CC1
4.5 nM | 152 µL/min/mg |  | > 5000 nM | 3000 nM | 215 µM (≈ 131 µg/mL) |  | > 5000 nM | 44.8 nM | 406 ng/mL | 92 nM | 478 ng·h/mL | 17.3% | CC(C)(/C=C(/C#N)C(=O)N1CCC[C@@H]1Cn1nc(-c2ccc(Oc3ccccc3)cc2F)c2c(N)ncnc21)N1CCOCC1
